Where a chain is given by its changes, count along the chain named. Like-named read-outs stand apart in the source and are kept apart here.
Columns and labels:
[1] = tested on: HDAC1; details: cited from earlier work
[2] = molecular target: T1, HDAC8wt (Homo sapiens, UniProt Q9BY41); test: Enzyme activity assay, IC50 determination with Boc-Lys(TFA)-AMC
T1 sequence (Q9BY41 1-377): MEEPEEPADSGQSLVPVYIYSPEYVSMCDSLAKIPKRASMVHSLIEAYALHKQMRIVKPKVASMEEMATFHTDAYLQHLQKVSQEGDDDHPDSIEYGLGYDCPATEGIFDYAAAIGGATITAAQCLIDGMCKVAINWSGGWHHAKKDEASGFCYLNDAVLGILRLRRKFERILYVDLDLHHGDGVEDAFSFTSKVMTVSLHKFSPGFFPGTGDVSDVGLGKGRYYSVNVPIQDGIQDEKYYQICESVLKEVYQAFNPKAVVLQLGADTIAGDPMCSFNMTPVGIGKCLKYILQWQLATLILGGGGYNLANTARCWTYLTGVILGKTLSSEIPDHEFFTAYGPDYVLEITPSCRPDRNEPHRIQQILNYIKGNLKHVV

[3] = tested on: HDAC2; details: cited from earlier work
[4] = tested on: HDAC6; details: cited from earlier work
[5] = molecular target: T2, HDAC8M274A (Homo sapiens, UniProt Q9BY41, M274A); test: Enzyme activity assay, IC50 determination with Boc-Lys(TFA)-AMC
T2 sequence (Q9BY41 1-377 M274A): T1 sequence (Q9BY41 1-377) with M274A

[6] = tested on: HDAC4; details: cited from earlier work
[7] = tested on: HDAC3; details: read-out: IC50 (HDAC3), cited from earlier work
[8] = tested on: HDAC10; details: cited from earlier work
[9] = tested on: HDAC8; details: cited from earlier work
[10] = tested on: several cancer cell lines; design: method as in PMID 22907916; details: ref [14]; cited from earlier work
[11] = tested on: HDAC11; design: method as in Huang et al. [14]; details: ref Huang et al. [14]; cited from earlier work
[12] = ref Balasubramanian et al. [12]
[13] = TSA value of Figure 1, source not given

In the case of `O=C(NO)c1cccc(-c2cn(CSc3ccccc3)nn2)c1` [NCC-149], the IC50 ([1]; ref Suzuki et al. [13]) is given as 38 µM, the IC50 [2] is given as 0.04 µM and the IC50 ([3]; ref Suzuki et al. [13]) is given as over 100 µM. The IC50 ([4]; ref Suzuki et al. [13]) was 2.4 µM, the IC50 [5] was 0.3 µM and the IC50 ([6]; ref Suzuki et al. [13]) was 44 µM. The IC50 ([7]; ref Suzuki et al. [13]) was over 68 µM.
For `COc1ccc(/C=C/C(=O)NO)c(-c2ccc(-c3ccccc3)cc2)c1` [o-ACHA], the antiproliferative effects [10] is given as “antiproliferative effects against several cancer cell lines”, the IC50 ([1]; ref Huang et al. [14]) is given as 3 µM and the IC50 ([3]; ref Huang et al. [14]) is given as over 20 µM. For the same molecule, the IC50 ([4]; ref Huang et al. [14]) was over 20 µM, the IC50 ([8]; ref Huang et al. [14]) was over 20 µM and the IC50 [11] was over 20 µM. The IC50 ([6]; ref Huang et al. [14]) was over 20 µM and the IC50 ([7]; ref Huang et al. [14]) was 3 µM.
In the case of `O=C(CCCCCCC(=O)Nc1ccccc1)NO` [SAHA, suberoylanilide hydroxamic acid], the IC50 [4, 12] is given as 0.017 µM.
For `CC(/C=C/C(=O)NO)=C\[C@@H](C)C(=O)c1ccc(N(C)C)cc1` [TSA, trichostatin A], the IC50 [1, 13] is listed as […], the IC50 [3, 13] is listed as […] and the IC50 [4, 13] is listed as 0.017 µM. For the same molecule, the IC50 ([9]; read-out: IC50 (HDAC8), TSA value of Figure 1, source not given) was 0.36 µM and the IC50 [6, 13] was 3.3 µM.

From PMC9569839, “Methionine 274 Is Not the Determining Factor for Selective Inhibition of Histone Deacetylase 8 (HDAC8) by L-Shaped Inhibitors” (International Journal of Molecular Sciences, 2022)
